Measurements reported in the supplement of paper PMC4862054.

How the values were obtained:
Experiment in all cases: drug sensitivity score (DSS), CellTiter-Glo (DSS (AUC-based score)); higher = stronger drug effect (viability inhibition or cytotoxicity); extreme values may be limits of the assay
Conditions in all cases: incubation time: 72 h
CAL-85-1 = test system: CAL-85-1
In short: (§1)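 The drug sensitivity score reflects the area under a fitted dose-response curve. To obtain it, breast cancer cells in 20 µl suspension were seeded into 384-well plates containing compound at 5 concentrations, 10-fold apart over a compound-specific 10,000-fold range, and incubated 72 h. CellTox Green fluorescence (485/520 nm) was read first and CellTiter-Glo luminescence second, after 10 min at room temperature. Each plate was normalised to 0.1 % DMSO and a positive kill control.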

CAL-120 = test system: CAL-120
In short: as §1

DU-4475 = test system: DU-4475
In short: as §1

MDA-MB-453 = test system: MDA-MB-453
In short: as §1

CAL-51 = test system: CAL-51
In short: as §1

BT-549 = test system: BT-549
In short: as §1

Hs578T = test system: Hs578T
In short: as §1

HDQ-P1 = test system: HDQ-P1
In short: as §1

MFM-223 = test system: MFM-223
In short: as §1

MDA-MB-231 = test system: MDA-MB-231
In short: as §1

HCC1937 = test system: HCC1937
In short: as §1

BT-474 = test system: BT-474
In short: as §1

Structure (SMILES)	drug sensitivity score (CAL-85-1)	drug sensitivity score (CAL-120)	drug sensitivity score (DU-4475)	drug sensitivity score (MDA-MB-453)	drug sensitivity score (CAL-51)	drug sensitivity score (BT-549)	drug sensitivity score (Hs578T)	drug sensitivity score (HDQ-P1)	drug sensitivity score (MFM-223)	drug sensitivity score (MDA-MB-231)	drug sensitivity score (HCC1937)	drug sensitivity score (BT-474)
COc1cc2c(NC3CCN(C(C)C)CC3)nc(C3CCCCC3)nc2cc1OCCCN1CCCC1 [UNC0638]	5.07	6.05	0.314	7.02	7.71	6.76	0	3.3	6.13	6.74	5.15	6.49
CC(=O)Nc1cccc(-n2c(=O)n(C3CC3)c(=O)c3c(Nc4ccc(I)cc4F)n(C)c(=O)c(C)c32)c1 [Trametinib]	6.58	5.16	27.2	0	0	0	2.9	10.8	1.88	5.25	3.49	5.25
O=C(O)CCCCC(CCSCc1ccccc1)SCc1ccccc1 (stereo not given) [CPI-613]	0	0	0	0	0	0	0	0	0	0	0	0
Cc1cnc(NC(=O)Nc2cc(Br)c(C)cc2OC[C@@H]2CNCCO2)cn1 [Rabusertib]	0.115	0	0	2.1	0	0	1.2	0	0	0	0	0
CC[C@H](C)C(=O)O[C@H]1C[C@H](O)C=C2C=C[C@H](C)[C@H](CC[C@@H](O)C[C@@H](O)CC(=O)O)[C@H]21 [Pravastatin]	1.96	2.92	4.02	0	14.4	2.77	0	1.68	2.84	0	3.68	3.69
CC[C@H](Nc1ncnc2[nH]cnc12)c1nc2cccc(F)c2c(=O)n1-c1ccccc1 [GS-1101]	0	1.34	0	0	0	2.49	0	1.93	0	1.82	0	2.65
O=C(/C=C/c1cccnc1)NCCCCC1CCN(C(=O)c2ccccc2)CC1 [Daporinad]	22	20.9	25.2	26.8	0	0	26.8	18	31.4	14.8	21.4	13.4
CNC(=O)c1cc(Oc2ccc(NC(=O)Nc3cc(C(C)(C)C)nn3-c3ccc4ncccc4c3)c(F)c2)ccn1 [Rebastinib]	0	2.56	0	0	0	0	0	0	6.56	0	0	0.877
C=CCc1cccc(/C=N/NC(=O)CN2CCN(Cc3ccccc3)CC2)c1O [PAC-1]	3	3.26	4.02	5.01	8.79	7.1	0	1.79	1.4	2.27	3.44	2.94
C=CC(=O)N1CCC[C@@H](n2nc(-c3ccc(Oc4ccccc4)cc3)c3c(N)ncnc32)C1 [Ibrutinib]	2.66	0	0	5.93	2.76	0	0	3.29	0	0	0	0
